Results from patent EP4725507A1, “POLYPEPTIDE CONJUGATE, PHARMACEUTICAL COMPOSITION CONTAINING POLYPEPTIDE CONJUGATE AND USE THEREOF” (Nanjing Anji Biotechnology Co., Ltd., priority 2023, dated 2025).
Peptide text beside a SMILES is read from it. * marks the point of attachment. Paclitaxel(2'-O-succinyl) = CC(=O)O[C@H]1C(=O)[C@@]2(C)[C@H]([C@H](OC(=O)c3ccccc3)[C@]3(O)C[C@H](OC(=O)[C@H](OC(=O)CCC(=O)*)[C@@H](NC(=O)c4ccccc4)c4ccccc4)C(C)=C1C3(C)C)[C@]1(OC(C)=O)CO[C@@H]1C[C@@H]2O

Assays:
Assay in all cases: Tumor cell proliferation inhibition (CCK8)
Assay type in all cases: cell-based
Conditions in all cases: IC50 of free drug / IC50 of polypeptide conjugate
[1] = tested on: LoVo (human colon cancer cells)
Excerpt: (§1) Human highly metastatic hepatocellular carcinoma cells HCCLM3, human highly metastatic gastric cancer cells MKN45, human gastric cancer cells BGC-823 and MGC-803, non-small cell lung cancer cells A549, human pancreatic cancer cells ASPC-1, human colon cancer cells LoVo, human ovarian cancer cells A2780, human cervical cancer cells SiHa, human malignant melanoma cells SK-mel-2 and M14, human osteosarcoma cells Saos-2, human bladder transitional cell carcinoma cells T24, human brain glioblastoma cells U87-MG, human lymphoma cells Raji, and human epidermal cancer cells A431 were selected for the experiment. Among them, HCCLM3 cells, MKN45 cells, BGC-823 cells, MGC-803 cells, A431 cells and A549 cells were provided by Nanjing Anji Biotechnology Co., Ltd., and the other cells were provided by Nanjing Ouji Pharmaceutical Technology Service Co., Ltd.
(§2) The aforementioned tumor cells were preserved in a medium containing 10% fetal bovine serum and 1% penicillin-streptomycin, and incubated at 37°C with 5% CO2 and 95% humidity. The aforementioned tumor cells were cultured in T75 flasks with an experimental cell density of 80%. The aforementioned tumor cell lines were mycoplasma-negative.
(§3) Tumor cells in the logarithmic growth phase were taken for the experiment. The cells were digested, counted, and prepared into a cell suspension with a concentration of 1×10^5 cells/mL, which was then inoculated into a 96-well plate (100 µL per well). The 96-well plate was incubated in a 37°C, 5% CO2 incubator for 24 hours. […] After incubating the plate in the incubator for 72 h, the cell morphology of each group was observed under a microscope. Then, 10 µL of CCK8 solution (Nanjing Enjing Biotechnology Co., Ltd.) was added to each well, and the plate was further incubated in the cell incubator for 4 h. After incubation, the absorbance was measured at 450 nm, and the tumor cell proliferation inhibition rate was calculated. The efficiency ratio was the ratio of the IC50 value of the free drug to that of the polypeptide conjugate. Table 1 Tumor cell proliferation inhibition rates of polypeptide conjugates

[2] = tested on: U87-MG (human brain glioblastoma cells)
Excerpt: as §1, §2, §3

[3] = tested on: SiHa (human cervical cancer cells)
Excerpt: as §1, §2, §3

[4] = tested on: ASPC-1 (human pancreatic cancer cells)
Excerpt: as §1, §2, §3

[5] = tested on: SK-mel-2 (human malignant melanoma cells)
Excerpt: as §1, §2, §3

[6] = tested on: M14 (human malignant melanoma cells)
Excerpt: as §1, §2, §3

[7] = tested on: T24 (human bladder transitional cell carcinoma cells)
Excerpt: as §1, §2, §3

[8] = tested on: Raji (human lymphoma cells)
Excerpt: as §1, §2, §3

[9] = tested on: Saos-2 (human osteosarcoma cells)
Excerpt: as §1, §2, §3

[10] = tested on: A2780 (human ovarian cancer cells)
Excerpt: as §1, §2, §3

SMILES	Efficiency Ratios [1]	Efficiency Ratios [2]	Efficiency Ratios [3]	Efficiency Ratios [4]	Efficiency Ratios [5]	Efficiency Ratios [6]	Efficiency Ratios [7]	Efficiency Ratios [8]	Efficiency Ratios [9]	Efficiency Ratios [10]
CC(=O)O[C@@]12CO[C@@H]1C[C@H](O)[C@@]1(C)C(=O)[C@H](O)C3=C(C)[C@@H](OC(=O)[C@H](OC(=O)CCC(=O)N[C@@H](CCCNC(=N)N)C(=O)N[C@@H](CO)C(=O)N4CCC[C@H]4C(=O)N[C@@H](Cc4ccc(O)cc4)C(=O)N[C@@H](C)C(=O)N[C@@H](CC(N)=O)C(=O)N[C@@H](CO)C(=O)O)[C@@H](NC(=O)OC(C)(C)C)c4ccccc4)C[C@@](O)([C@@H](OC(=O)c4ccccc4)[C@H]21)C3(C)C [DOC-AI]	1.18	2.05	3.90	2.31	1.00	1.21				
CC(=O)O[C@H]1C(=O)[C@@]2(C)[C@H]([C@H](OC(=O)c3ccccc3)[C@]3(O)C[C@H](OC(=O)[C@H](OC(=O)CCC(=O)N[C@@H](CCCNC(=N)N)C(=O)N[C@@H](CO)C(=O)N4CCC[C@H]4C(=O)N[C@@H](Cc4ccc(O)cc4)C(=O)N[C@@H](C)C(=O)N[C@@H](CC(N)=O)C(=O)N[C@@H](CO)C(=O)O)[C@@H](NC(=O)c4ccccc4)c4ccccc4)C(C)=C1C3(C)C)[C@]1(OC(C)=O)CO[C@@H]1C[C@@H]2O [PTX-AI] ({Paclitaxel(2'-O-succinyl)}-RSPYANS-OH)							1.78	1.09	1.47	1.11
